Tests used:
[1] = for molar entropy: 101.33 kPa, Vacuum adiabatic calorimetry; for Triple point temperature: Adiabatic calorimetry
[2] = Molar enthalpy of transition or fusion; details: Crystal 1; Adiabatic calorimetry
[3] = molar heat capacity at saturation pressure; details: Vacuum adiabatic calorimetry

O=c1c2ccccc2oc2ccccc12 [9H-xanthen-9-one]
Details | molar entropy, [1] [J/K/mol] | molar heat capacity, [3] [J/K/mol]
4.948 K, Crystal 2 | – | 0.4157
5 K, Crystal 2 | 0.1497 | 0.449
5.884 K, Crystal 2 | – | 0.7317
6.774 K, Crystal 2 | – | 1.131
7.756 K, Crystal 2 | – | 1.68
8.886 K, Crystal 2 | – | 2.494
10 K, Crystal 2 | 1.189 | 3.475
10.01 K, Crystal 2 | – | 3.492
11.15 K, Crystal 2 | – | 4.606
12.42 K, Crystal 2 | – | 5.895
13.82 K, Crystal 2 | – | 7.574
15.41 K, Crystal 2 | – | 9.42
17.21 K, Crystal 2 | – | 11.62
19.14 K, Crystal 2 | – | 14.03
20 K, Crystal 2 | 7.009 | 15.07
21.27 K, Crystal 2 | – | 16.62
23.69 K, Crystal 2 | – | 19.61
26.45 K, Crystal 2 | – | 22.93
29.52 K, Crystal 2 | – | 26.48
30 K, Crystal 2 | 15.42 | 27.03
32.99 K, Crystal 2 | – | 30.34
36.76 K, Crystal 2 | – | 34.3
40 K, Crystal 2 | 24.67 | 37.43
40.81 K, Crystal 2 | – | 38.18
45.21 K, Crystal 2 | – | 42.3
49.99 K, Crystal 2 | – | 46.39
50 K, Crystal 2 | 34.01 | 46.4
55.3 K, Crystal 2 | – | 50.63
60 K, Crystal 2 | 43.17 | 54.19
61.27 K, Crystal 2 | – | 55.12
67.42 K, Crystal 2 | – | 59.55
70 K, Crystal 2 | 52.07 | 61.32
74.05 K, Crystal 2 | – | 64.05
80 K, Crystal 2 | 60.7 | 68.05
81.42 K, Crystal 2 | – | 68.99
89.28 K, Crystal 2 | – | 74.02
90 K, Crystal 2 | 69.08 | 74.5
97.77 K, Crystal 2 | – | 79.43
100 K, Crystal 2 | 77.26 | 80.83
107.1 K, Crystal 2 | – | 85.28
116.86 K, Crystal 2 | – | 91.41
120 K, Crystal 2 | 93.11 | 93.39
126.79 K, Crystal 2 | – | 97.69
136.84 K, Crystal 2 | – | 104.11
140 K, Crystal 2 | 108.46 | 106.16
146.73 K, Crystal 2 | – | 110.54
156.73 K, Crystal 2 | – | 117.13
160 K, Crystal 2 | 123.49 | 119.31
166.81 K, Crystal 2 | – | 123.9
176.93 K, Crystal 2 | – | 130.77
180 K, Crystal 2 | 138.32 | 132.89
187.03 K, Crystal 2 | – | 137.78
197.16 K, Crystal 2 | – | 144.95
200 K, Crystal 2 | 153.04 | 146.97
207.33 K, Crystal 2 | – | 152.23
217.49 K, Crystal 2 | – | 159.6
220 K, Crystal 2 | 167.73 | 161.45
227.64 K, Crystal 2 | – | 167.1
237.79 K, Crystal 2 | – | 174.59
240 K, Crystal 2 | 182.41 | 176.23
247 K, Crystal 2 | – | 181.5
257.21 K, Crystal 2 | – | 189.32
260 K, Crystal 2 | 197.12 | 191.47
267.43 K, Crystal 2 | – | 197.24
271.49 K, Crystal 2 | – | 200.45
277.66 K, Crystal 2 | – | 205.34
280 K, Crystal 2 | 211.88 | 207.28
281.58 K, Crystal 2 | – | 208.68
285.78 K, Crystal 2 | – | 211.94
287.89 K, Crystal 2 | – | 213.62
287.93 K, Crystal 2 | – | 213.81
290.92 K, Crystal 2 | – | 216.28
293.89 K, Crystal 2 | – | 218.7
296.84 K, Crystal 2 | – | 221.36
298.15 K, Crystal 2 | 225.36 | 222.59
299.77 K, Crystal 2 | – | 224.22
300 K, Crystal 2 | 226.74 | 224.32
302.68 K, Crystal 2 | – | 226.91
304.5 K, Crystal 1 | 230.12 | 217.42
304.5 K, Crystal 2 | 230.12 | 228.82
308.54 K, Crystal 1 | – | 220.52
314.52 K, Crystal 1 | – | 224.74
319.05 K, Crystal 1 | – | 228.22
320 K, Crystal 1 | 241.19 | 228.78
329.4 K, Crystal 1 | – | 234.88
339.75 K, Crystal 1 | – | 241.96
340 K, Crystal 1 | 255.47 | 242.13
350.05 K, Crystal 1 | – | 248.91
360 K, Crystal 1 | 269.69 | 255.59
360.25 K, Crystal 1 | – | 255.74
370.5 K, Crystal 1 | – | 262.7
380 K, Crystal 1 | 283.87 | 269.01
380.94 K, Crystal 1 | – | 269.61
391.39 K, Crystal 1 | – | 276.39
400 K, Crystal 1 | 298 | 281.96
401.81 K, Crystal 1 | – | 283.12
403.54 K, Crystal 1 | – | 284.25
411.03 K, Crystal 1 | – | 289
412.19 K, Crystal 1 | – | 289.73
416.69 K, Crystal 1 | – | 292.58
419.61 K, Crystal 1 | – | 294.44
420 K, Crystal 1 | 312.06 | 294.67
422.49 K, Crystal 1 | – | 296.32
426.25 K, Crystal 1 | – | 298.77
426.89 K, Crystal 1 | – | 299.05
428.37 K, Crystal 1 | – | 300.06
432.6 K, Crystal 1 | – | 302.78
434.54 K, Crystal 1 | – | 304.24
436.39 K, Crystal 1 | – | 305.61
436.87 K, Crystal 1 | – | 305.89
437 K, Crystal 1 | – | 305.66
438.34 K, Crystal 1 | – | 306.66
440 K, Crystal 1 | 326.08 | 307.81
441.53 K, Crystal 1 | – | 308.59
444.48 K, Crystal 1 | – | 310.76
448.8 K, Crystal 1 | 332.22 | 313.35
448.8 K, Liquid | 393.44 | 352.72
456.71 K, Liquid | – | 355.95
456.82 K, Liquid | – | 356.07
456.9 K, Liquid | – | 356.08
460 K, Liquid | 402.2 | 357.33
465.07 K, Liquid | – | 359.58
465.9 K, Liquid | – | 359.81
476.6 K, Liquid | – | 364.34
480 K, Liquid | 417.58 | 365.74
488.56 K, Liquid | – | 369.25
497.53 K, Liquid | – | 372.95
500 K, Liquid | 432.68 | 374.07
500.95 K, Liquid | – | 374.47
512.38 K, Liquid | – | 379.19
520 K, Liquid | 447.51 | 382.26
521.08 K, Liquid | – | 382.68

Details | mass density [kg/m3]
[1], 473 K, Liquid, Pycnometric method | 1090

[1]
Details | Triple point temperature [K]
Crystal 1 | 448.8
Crystal 2 | 304.5

Details | Molar enthalpy of transition or fusion [kcal/mol]
[2] | 6.567
